# Source: patent US11306124B2, “Agonist agents of CD47 inducing programmed cell death and their use in the treatments of diseases associated with defects in programmed cell death” (SORBONNE UNIVERSITE, priority 2016, dated 2022)
# Read-outs that look alike come from different tables or passages of the source. Residues, ends and D or L forms follow the SMILES beside them.
# How the values were obtained:
# [1] = test system: MCF-7, HCT-116, BxPC3 and A549 cancer cells; test: Cell viability and proliferation of tumor cells (cytotoxic assay and direct cell counting); format: cell-based, human; details: for viability in all cell strains: 2 hours, 10 to 50 μM peptide concentration; for efficiency in inducing cell death on cancer cell lines: MCF-7, HCT-116, BxPC3, A549
# Procedure: The effects of several cyclic peptides of the invention on the proliferation of tumor cells were evaluated on 5 cell lines (MCF-7, human breast cancer cells; HCT-116, human colon cancer cells; BxPC3, human pancreas cancer cells and A549, human lung cancer cells) by cytotoxic assay and by counting directly the number of cells.
# Those cyclic peptides were dissolved in DMSO at the following concentrations: 0, 5, 10, 25, 50 and 100 μM.
# Culture media used for these assays are: EMEM=10% SVF for MCF-7 and Wi38; RPMI […] SVF for HCT-116 and BxPC3 and F-12K=10% SVF for A549.
# 500 cells were seeded in 96-well plates, incubated at 37° C. for 24 hours, and treated by the cyclic peptides at the different concentrations and controls for 2 h.
# HCT-116 cells = format: cell-based, human; details: 2 h; for Viable, Mean (%): human; for Early Apoptosis, Mean (%) / Late apoptosis, Mean (%): HCT-116 cells
# Procedure: 2.2.2. Cell Death Analysis by Flow Cytometry
# To detect possible apoptotic processes, cells were seeded in 35 mm dishes and cultured in media containing each tested cyclic peptide for 2 hours following procedure A or B.
# Procedure B: Peptides were incubated for 2 hours on HCT-116 cells. Superkiller Trail (ALX-201-115C-010) was used as a positive pro-apoptotic control. Cells were analyzed by cytofluorometry using FITC Annexin V apoptosis detection kit with 7-AAD from BIOLEGEND (BLE640922).
# [2] = peptide concentration 12.5 (μM)
Molecule,viability in all cell strains [1],"Viable, Mean (%) (HCT-116 cells; 12.5 μM)","Viable, Mean (%) (HCT-116 cells; 25 μM)","Viable, Mean (%) (HCT-116 cells; 50 μM)",also measured
"CC[C@@H](C)[C@@H]1NC(=O)CNC(=O)[C@@H]2CCCN2C(=O)[C@H]2CCCN2C(=O)[C@H](CCCCN)NC(=O)[C@H](Cc2c[nH]c3ccccc23)NC(=O)[C@H](CCSC)NC(=O)[C@@H](C(C)C)NC(=O)[C@H](C(C)C)NC(=O)[C@H](Cc2ccc(O)cc2)NC(=O)[C@H](Cc2ccccc2)NC(=O)[C@H](CCCNC(=N)N)NC(=O)C(CC(N)=O)NC(=O)[C@H](C(C)C)NC(=O)[C@H](C(C)C)NC(=O)[C@H](CCCCN)NC(=O)[C@H](C(C)C)NC(=O)[C@H](CO)NC1=O (stereo partly drawn) [PKTD7, —R—F—Y—V—V—M—W—K—p—P—G—I—S—V—K—V—V—N—] (HELM PEPTIDE1{G.[CC[C@@H](C)[C@H](N[*:1])C(=O)[*:2]].S.V.K.V.V.[NC(=O)CC(N[*:1])C(=O)[*:2]].R.F.Y.V.[dV].M.W.K.[dP].P}$PEPTIDE1,PEPTIDE1,1:R1-18:R2$$$V2.0)",dose-dependent viability decrease,–,–,–,efficiency in inducing cell death on cancer cell lines [1]: efficient in inducing cell death
"CC(C)C[C@@H]1NC(=O)[C@@H]2CCCN2C(=O)[C@H]2CCCN2C(=O)[C@H](Cc2c[nH]c3ccccc23)NC(=O)[C@H](CCCCN)NC(=O)[C@H](C(C)C)NC(=O)[C@H](C(C)C)NC(=O)[C@H](Cc2ccccc2)NC(=O)[C@H](Cc2ccccc2)NC(=O)[C@H](C(C)C)NC(=O)[C@H](C(C)C)NC(=O)[C@H](CCCCN)NC(=O)[C@H](C(C)C)NC(=O)[C@H](CO)NC1=O [PKD10-FF, —F—F—V—V—K—W—p—P—L—S—V—K—V—V—] (HELM PEPTIDE1{F.F.V.V.K.W.[dP].P.L.S.V.K.V.V}$PEPTIDE1,PEPTIDE1,1:R1-14:R2$$$V2.0)",–,25.225,30.445,31.97,–
"CSCC[C@@H]1NC(=O)[C@@H](C(C)C)NC(=O)[C@H](C(C)C)NC(=O)[C@H](Cc2ccc(O)cc2)NC(=O)[C@H](Cc2ccccc2)NC(=O)[C@H](CCCNC(=N)N)NC(=O)[C@H](CO)NC(=O)CNC(=O)[C@H](CC(N)=O)NC(=O)[C@H](C(C)C)NC(=O)[C@H](C(C)C)NC(=O)[C@H](CCCCN)NC(=O)[C@H](C(C)C)NC(=O)[C@H](CO)NC(=O)[C@H](CC(C)C)NC(=O)CNC(=O)[C@@H]2CCCN2C(=O)[C@H]2CCCN2C(=O)[C@H](CCCCN)NC(=O)[C@H](Cc2c[nH]c3ccccc23)NC1=O [PKTD18, —S—R—F—Y—V—V—M—W—K—p—P—G—L—S—V—K—V—V—N—G—] (HELM PEPTIDE1{S.R.F.Y.V.[dV].M.W.K.[dP].P.G.L.S.V.K.V.V.N.G}$PEPTIDE1,PEPTIDE1,1:R1-20:R2$$$V2.0)",–,82.45,75.12,67.48,–
"CSCC[C@@H]1NC(=O)[C@H](C(C)C)NC(=O)[C@H](C(C)C)NC(=O)[C@H](Cc2ccc(O)cc2)NC(=O)[C@H](Cc2ccccc2)NC(=O)[C@H](CCCNC(=N)N)NC(=O)[C@H](CO)NC(=O)[C@H](CO)NC(=O)[C@H](CC(N)=O)NC(=O)[C@H](C(C)C)NC(=O)[C@H](C(C)C)NC(=O)[C@H](CCCCN)NC(=O)[C@H](C)NC(=O)[C@H](CO)NC(=O)[C@H](CC(C)C)NC(=O)CNC(=O)[C@@H]2CCCN2C(=O)[C@H]2CCCN2C(=O)[C@H](CCCCN)NC(=O)[C@H](Cc2c[nH]c3ccccc23)NC1=O [PKTD10-4, —S—R—F—Y—V—V—M—W—K—p—P—G—L—S—A—K—V—V—N—S—] (HELM PEPTIDE1{S.R.F.Y.V.V.M.W.K.[dP].P.G.L.S.A.K.V.V.N.S}$PEPTIDE1,PEPTIDE1,1:R1-20:R2$$$V2.0)",dose-dependent viability decrease,85.90,82.41,76.52,"Early Apoptosis, Mean (%) (HCT-116 cells; [2]): 9.27%; Late apoptosis, Mean (%) (HCT-116 cells; [2]): 4.39%; Early Apoptosis, Mean (%) (HCT-116 cells; peptide concentration 25 (μM)): 11.91%; Late apoptosis, Mean (%) (HCT-116 cells; peptide concentration 25 (μM)): 5.54%; Early Apoptosis, Mean (%) (HCT-116 cells; peptide concentration 50 (μM)): 15.68%; Late apoptosis, Mean (%) (HCT-116 cells; peptide concentration 50 (μM)): 7.53%"
"CSCC[C@@H]1NC(=O)[C@@H](C(C)C)NC(=O)[C@H](C(C)C)NC(=O)[C@H](Cc2ccc(O)cc2)NC(=O)[C@H](Cc2ccccc2)NC(=O)[C@H](CCCNC(=N)N)N(C)C(=O)[C@H](CO)NC(=O)[C@H](CO)NC(=O)[C@H](CC(N)=O)NC(=O)[C@H](C(C)C)NC(=O)[C@H](C(C)C)NC(=O)[C@H](CCCCN)NC(=O)[C@H](C(C)C)NC(=O)[C@H](CO)NC(=O)[C@H](CC(C)C)NC(=O)CNC(=O)[C@@H]2CCCN2C(=O)[C@H]2CCCN2C(=O)[C@H](CCCCN)NC(=O)[C@H](Cc2c[nH]c3ccccc23)NC1=O (relative stereo) [PKTD10-RNMe, —S—R*—F—Y—V—V—M—W—K—p—P—G—L—S—V—K—V—V—N—S— R* = RNMe]",–,91.72,91.10,76.73,–
"CC[C@H](C)[C@@H]1NC(=O)CNC(=O)[C@@H]2CCCN2C(=O)[C@H]2CCCN2C(=O)[C@H](CCCCN)NC(=O)[C@H](Cc2c[nH]c3ccccc23)NC(=O)[C@H](CCSC)NC(=O)[C@H](C(C)C)NC(=O)[C@H](C(C)C)NC(=O)[C@H](Cc2ccc(O)cc2)NC(=O)[C@H](Cc2ccccc2)NC(=O)[C@H](CCCNC(=N)N)NC(=O)[C@H](CO)NC(=O)[C@H](CO)NC(=O)[C@H](CCCCN)NC(=O)[C@H](C(C)C)NC(=O)[C@H](C(C)C)NC(=O)[C@H](CCCCN)NC(=O)[C@H](C(C)C)NC(=O)[C@H](CO)NC1=O [PKTD1, —S—R—F—Y—V—V—M—W—K—p—P—G—I—S—V—K—V—V—K—S—] (HELM PEPTIDE1{G.I.S.V.K.V.V.K.S.S.R.F.Y.V.V.M.W.K.[dP].P}$PEPTIDE1,PEPTIDE1,1:R1-20:R2$$$V2.0)",–,76.44,63.51,37.56,–
"CSCC[C@@H]1NC(=O)[C@H](C(C)C)NC(=O)[C@H](C(C)C)NC(=O)[C@H](Cc2ccc(O)cc2)NC(=O)[C@H](Cc2ccccc2)NC(=O)[C@H](CCCNC(=N)N)N(C)C(=O)[C@H](CO)NC(=O)[C@H](CO)NC(=O)[C@H](CC(N)=O)NC(=O)[C@H](C(C)C)NC(=O)[C@H](C(C)C)NC(=O)[C@H](CCCCN)NC(=O)[C@H](C(C)C)NC(=O)[C@H](CO)NC(=O)[C@H](CC(C)C)NC(=O)CNC(=O)[C@H](CO)NC(=O)[C@@H]2CCCN2C(=O)[C@H]2CCCN2C(=O)[C@H](CCC(N)=O)NC(=O)[C@H](CCCCN)NC(=O)[C@H](Cc2c[nH]c3ccccc23)NC1=O (relative stereo) [PKTD11RNMe, —S—R*—F—Y—V—V—M—W—K—Q—p—P—S—G—L—S—V—K—V—V—N—S— R* = RNMe]",–,88.71,86.38,67.03,–
"CCCC[C@@H]1NC(=O)[C@@H](C(C)C)NC(=O)[C@H](C(C)C)NC(=O)[C@H](Cc2ccc(O)cc2)NC(=O)[C@H](Cc2ccccc2)NC(=O)[C@H](CCCNC(=N)N)N(C)C(=O)[C@H](CO)NC(=O)[C@H](CO)NC(=O)[C@H](CC(N)=O)NC(=O)[C@H](C(C)C)NC(=O)[C@H](C(C)C)NC(=O)[C@H](CCCCN)NC(=O)[C@H](C(C)C)NC(=O)[C@H](CO)NC(=O)[C@H](CC(C)C)NC(=O)CNC(=O)[C@@H]2CCCN2C(=O)[C@H]2CCCN2C(=O)[C@H](CCCCN)NC(=O)[C@H](Cc2c[nH]c3ccccc23)NC1=O (relative stereo) [PKTD10-X-RNMe, —S—R*—F—Y—V—V—X—W—K—p—P—G—L—S—V—K—V—V—N—S— R* = RNMe and X = NLe]",–,82.76,75.17,48.31,–
"—S—R—F—Y—V—V—M—W—K—p—P—S—R—F—Y—V—V—M—W—K— (SRFYVVMWKPPSRFYVVMWK; HELM PEPTIDE1{S.R.F.Y.V.V.M.W.K.[dP].P.S.R.F.Y.V.V.M.W.K}$PEPTIDE1,PEPTIDE1,1:R1-20:R2$$$V2.0; SMILES CSCC[C@@H]1NC(=O)[C@H](C(C)C)NC(=O)[C@H](C(C)C)NC(=O)[C@H](Cc2ccc(O)cc2)NC(=O)[C@H](Cc2ccccc2)NC(=O)[C@H](CCCNC(=N)N)NC(=O)[C@H](CO)NC(=O)[C@@H]2CCCN2C(=O)[C@H]2CCCN2C(=O)[C@H](CCCCN)NC(=O)[C@H](Cc2c[nH]c3ccccc23)NC(=O)[C@H](CCSC)NC(=O)[C@H](C(C)C)NC(=O)[C@H](C(C)C)NC(=O)[C@H](Cc2ccc(O)cc2)NC(=O)[C@H](Cc2ccccc2)NC(=O)[C@H](CCCNC(=N)N)NC(=O)[C@H](CO)NC(=O)[C@H](CCCCN)NC(=O)[C@H](Cc2c[nH]c3ccccc23)NC1=O; listed as Homo sapiens) [PKTD16]",dose-dependent viability decrease,–,–,–,–
—S—R—F—Y—V—V—M—W—K—Q—p—P—S—G—L—S—V—K—V—V—N—S— [PKTD11],dose-dependent viability decrease,–,–,–,efficiency in inducing cell death on cancer cell lines [1]: efficient in inducing cell death
